Assay results from article PMC8073777, “Design, Synthesis, Biological Evaluation and In Silico Studies of Pyrazole-Based NH2-Acyl Oseltamivir Analogues as Potent Neuraminidase Inhibitors” (Pharmaceuticals, 2021).

target: A/H3N2 influenza NA (Influenza A virus (H3N2), UniProt Q91IQ5); assay type: biochemical, A/H3N2 influenza virus (clinical isolate from Hong Kong); conditions: 10 µM

Going from `CCC(CC)O[C@@H]1C=C(C(=O)O)C[C@H](NC(=O)c2cnn(Cc3cccc(OC)c3)c2)[C@H]1NC(C)=O` [Compound 6e, (3R,4R,5S)-4-acetamido-5-(1-(3-methoxybenzyl)-1H-pyrazole-4-carboxamido)-3-(pentan-3-yloxy) cyclohex-1-ene-1-carboxylic acid] to `CCC(CC)O[C@@H]1C=C(C(=O)O)C[C@H](NC(=O)c2cc(C3CC3)n(-c3cccc(C)c3)n2)[C@H]1NC(C)=O` [Compound 24c, (3R,4R,5S)-4-acetamido-5-(5-cyclopropyl-1-(m-tolyl)-1H-pyrazole-3-carboxamido)-3-(pentan-3-yloxy) cyclohex-1-ene-1-carboxylic acid], the “Inhibitory rate against A/H3N2 influenza NA” value rises from 23.37% to 34.75%.

With `CCC(CC)O[C@@H]1C=C(C(=O)O)C[C@H](NC(=O)c2cc(C3CC3)n(-c3ccccc3C)n2)[C@H]1NC(C)=O` [Compound 24b, (3R,4R,5S)-4-acetamido-5-(5-cyclopropyl-1-(o-tolyl)-1H-pyrazole-3-carboxamido)-3-(pentan-3-yloxy) cyclohex-1-ene-1-carboxylic acid] the “Inhibitory rate against A/H3N2 influenza NA” value was 60.91%.
